According to ChEMBL document CHEMBL1201862, “PubChem BioAssay data set” (2004):
Active and inactive are the calls of the source.

Tests used:
[1] = molecular target: T1, Bcl-2-related protein A1 (Mus musculus, UniProt Q07440); experiment: Bfl-1 binding inhibitors, SAR follow-up, biochemical, fluorescence polarization (AID 1070)
T1 sequence (Q07440 whole entry): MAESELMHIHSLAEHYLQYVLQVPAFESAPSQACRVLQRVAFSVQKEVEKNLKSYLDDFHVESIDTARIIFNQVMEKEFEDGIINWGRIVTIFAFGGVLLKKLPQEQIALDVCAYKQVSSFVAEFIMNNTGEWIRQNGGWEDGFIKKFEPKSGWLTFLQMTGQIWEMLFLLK

[2] = molecular target: T1, Bcl-2-related protein A1; experiment: Bfl-1 inhibitors blocking BH3 peptide binding, confirmation, biochemical, TR-FRET, mouse Bfl-1 (AID 621);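 further: TR-FRET binding of GST-Bfl-1 to FITC-labelled Bid peptide via terbium antibody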
[3] = molecular target: Glyceraldehyde-3-phosphate dehydrogenase (Homo sapiens, UniProt P04406)
[4] = molecular target: Genome polyprotein (Hepatitis C virus, UniProt Q2Q167); experiment: HCV core protein dimerization inhibitors, dose response, biochemical, TR-FRET (AID 2159); design: species or system Hepacivirus hominis;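 further: blocks dimerization of HCV core protein measured by TR-FRET between tagged core106 pairs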
[5] = molecular target: T2, Carboxy-terminal domain RNA polymerase II polypeptide A small phosphatase 1 (Homo sapiens, UniProt Q9GZU7); experiment: inhibitors of CTDSP1, concentration-response testing, biochemical assay, absorbance-based, actives from ultra-high-throughput screening (AID 540297); format: functional
T2 sequence (Q9GZU7 whole entry): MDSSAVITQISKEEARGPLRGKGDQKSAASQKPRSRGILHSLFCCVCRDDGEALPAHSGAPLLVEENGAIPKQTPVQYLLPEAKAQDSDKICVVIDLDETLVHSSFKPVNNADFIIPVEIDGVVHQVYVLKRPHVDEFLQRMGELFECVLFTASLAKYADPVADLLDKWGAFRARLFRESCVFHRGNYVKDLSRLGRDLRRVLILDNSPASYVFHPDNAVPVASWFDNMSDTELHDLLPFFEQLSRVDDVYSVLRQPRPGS

[6] = molecular target: Tyrosine-protein phosphatase non-receptor type 11 (Homo sapiens, UniProt Q06124); experiment: SHP2 phosphatase inhibition, dose response, selectivity assay for STEP inhibitor project, biochemical (AID 602367); format: functional; settings: read-out: IC50_Mean
[7] = molecular target: Prothrombin (Bos taurus, UniProt P00735); experiment: thrombin inhibition, dose response, biochemical, fluorescence polarization, uHTS hits (AID 602369); format: functional
[8] = molecular target: Dual specificity protein phosphatase 6 (Rattus norvegicus, UniProt Q64346); experiment: MKP-3 phosphatase inhibitors, primary screen, biochemical, rat enzyme, in vitro (AID 425)
Dual specificity protein phosphatase 6, sequence (Q64346 whole entry): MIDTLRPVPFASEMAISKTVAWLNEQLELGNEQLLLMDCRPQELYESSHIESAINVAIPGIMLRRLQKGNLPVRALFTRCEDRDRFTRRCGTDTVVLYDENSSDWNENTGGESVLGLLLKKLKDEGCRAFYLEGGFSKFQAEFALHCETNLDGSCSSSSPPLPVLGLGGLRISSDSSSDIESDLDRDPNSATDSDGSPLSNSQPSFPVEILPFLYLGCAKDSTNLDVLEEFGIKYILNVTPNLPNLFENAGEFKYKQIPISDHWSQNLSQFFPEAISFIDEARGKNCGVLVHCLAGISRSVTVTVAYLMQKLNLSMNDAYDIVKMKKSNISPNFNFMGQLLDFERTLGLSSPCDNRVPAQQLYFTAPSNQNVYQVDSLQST

[9] = molecular target: Peroxisome proliferator-activated receptor gamma/Nuclear receptor coactivator 3 (Homo sapiens, UniProt P37231); experiment: TR-FRET dose response biochemical High Throughput Screening assay for agonists of the steroid receptor coactivator 3 (SRC-3) recruitment by the peroxisome proliferator-activated receptor gamma (PPAR gamma): non-selective agonists. [Related pubchem assays: 1301 (Confirmation screen.), 1048 (Primary screen.)]; format: functional
[10] = molecular target: Peroxisome proliferator-activated receptor gamma/Nuclear receptor coactivator 2 (Homo sapiens, UniProt P37231); experiment: (§1) TR-FRET dose response biochemical High Throughput Screening assay for agonists of the steroid receptor coactivator 2 (SRC-2) recruitment by the peroxisome proliferator-activated receptor gamma (PPAR gamma): non-selective agonists. [Related pubchem assays: 1297, 1032 ]; format: functional
Peroxisome proliferator-activated receptor gamma/Nuclear receptor coactivator 2, sequence (P37231 whole entry): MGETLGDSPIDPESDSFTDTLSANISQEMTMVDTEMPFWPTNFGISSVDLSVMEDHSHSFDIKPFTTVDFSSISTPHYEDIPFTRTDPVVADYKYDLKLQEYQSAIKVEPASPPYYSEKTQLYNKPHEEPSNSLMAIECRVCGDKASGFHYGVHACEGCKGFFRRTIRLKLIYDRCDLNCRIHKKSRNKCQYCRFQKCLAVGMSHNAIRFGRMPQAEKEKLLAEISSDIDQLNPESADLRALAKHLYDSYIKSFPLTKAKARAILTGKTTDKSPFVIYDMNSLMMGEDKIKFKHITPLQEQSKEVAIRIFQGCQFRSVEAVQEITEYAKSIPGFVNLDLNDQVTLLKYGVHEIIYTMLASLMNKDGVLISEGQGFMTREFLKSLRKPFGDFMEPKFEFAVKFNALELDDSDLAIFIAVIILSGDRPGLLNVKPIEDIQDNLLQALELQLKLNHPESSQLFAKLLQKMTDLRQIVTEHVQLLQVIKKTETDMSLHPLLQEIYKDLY
Peroxisome proliferator-activated receptor gamma/Nuclear receptor coactivator 2, sequence (Q15596 whole entry, further chain): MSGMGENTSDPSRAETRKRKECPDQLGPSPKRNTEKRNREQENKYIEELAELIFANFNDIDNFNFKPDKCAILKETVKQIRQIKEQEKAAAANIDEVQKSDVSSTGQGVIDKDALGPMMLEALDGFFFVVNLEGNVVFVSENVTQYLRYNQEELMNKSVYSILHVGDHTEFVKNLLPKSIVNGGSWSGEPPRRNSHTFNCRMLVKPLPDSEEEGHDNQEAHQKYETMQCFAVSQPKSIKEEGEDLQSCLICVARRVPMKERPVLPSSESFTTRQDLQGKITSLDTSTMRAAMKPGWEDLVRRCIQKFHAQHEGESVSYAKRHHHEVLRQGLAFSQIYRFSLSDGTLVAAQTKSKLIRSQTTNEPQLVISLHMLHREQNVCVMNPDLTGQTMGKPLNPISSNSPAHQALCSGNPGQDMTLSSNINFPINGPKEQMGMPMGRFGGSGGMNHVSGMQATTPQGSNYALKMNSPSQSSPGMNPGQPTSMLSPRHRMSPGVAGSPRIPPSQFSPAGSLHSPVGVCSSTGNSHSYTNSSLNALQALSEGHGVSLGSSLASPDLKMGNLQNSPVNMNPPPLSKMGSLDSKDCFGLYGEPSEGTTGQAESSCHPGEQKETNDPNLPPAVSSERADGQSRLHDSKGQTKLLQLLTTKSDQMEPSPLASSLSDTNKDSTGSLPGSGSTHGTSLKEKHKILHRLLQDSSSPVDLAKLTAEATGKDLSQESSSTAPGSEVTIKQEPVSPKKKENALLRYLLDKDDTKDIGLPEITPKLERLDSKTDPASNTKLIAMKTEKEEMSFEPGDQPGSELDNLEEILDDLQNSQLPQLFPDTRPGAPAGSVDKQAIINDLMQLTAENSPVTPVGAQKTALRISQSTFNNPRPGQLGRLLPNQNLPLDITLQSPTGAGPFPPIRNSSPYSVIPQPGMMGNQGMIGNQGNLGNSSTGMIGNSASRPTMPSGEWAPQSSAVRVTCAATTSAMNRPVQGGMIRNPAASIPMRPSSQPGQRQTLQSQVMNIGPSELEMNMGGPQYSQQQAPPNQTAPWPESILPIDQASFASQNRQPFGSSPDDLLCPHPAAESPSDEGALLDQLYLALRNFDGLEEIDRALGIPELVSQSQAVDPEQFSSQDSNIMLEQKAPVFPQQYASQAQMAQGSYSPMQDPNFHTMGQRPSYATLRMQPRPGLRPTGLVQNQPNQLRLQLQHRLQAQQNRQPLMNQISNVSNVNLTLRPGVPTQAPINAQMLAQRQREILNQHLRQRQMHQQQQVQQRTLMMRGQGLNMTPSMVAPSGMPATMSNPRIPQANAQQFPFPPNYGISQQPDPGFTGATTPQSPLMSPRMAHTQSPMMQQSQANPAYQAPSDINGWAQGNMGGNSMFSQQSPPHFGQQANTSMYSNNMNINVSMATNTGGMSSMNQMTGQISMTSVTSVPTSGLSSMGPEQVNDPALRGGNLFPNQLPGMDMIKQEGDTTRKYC

[11] = molecular target: Dual specificity protein phosphatase 3 (Homo sapiens, UniProt P51452); experiment: VHR phosphatase inhibition, dose response, selectivity assay for STEP inhibitor project, biochemical (AID 602374); format: functional; settings: read-out: IC50_Mean
Dual specificity protein phosphatase 3, sequence (P51452 whole entry): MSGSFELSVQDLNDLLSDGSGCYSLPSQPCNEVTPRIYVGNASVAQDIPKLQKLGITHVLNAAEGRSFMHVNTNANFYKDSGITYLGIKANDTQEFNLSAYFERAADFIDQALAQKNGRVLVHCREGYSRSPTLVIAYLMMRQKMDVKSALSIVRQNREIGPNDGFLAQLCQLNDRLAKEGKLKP

[12] = molecular target: 26S proteasome non-ATPase regulatory subunit 14 (Homo sapiens, UniProt O00487); experiment: inhibition of proteasome subunit RPN11 – biochemical, fluorescence polarization, uHTS hits, confirmation (AID 602368); format: functional
[13] = molecular target: Tyrosine-protein phosphatase non-receptor type 5 (Homo sapiens, UniProt P54829); experiment: STEP phosphatase inhibitors, confirmation, biochemical, fluorescence intensity, uHTS hits (AID 602372); format: functional; settings: read-out: IC50_Mean
Tyrosine-protein phosphatase non-receptor type 5, sequence (P54829 whole entry): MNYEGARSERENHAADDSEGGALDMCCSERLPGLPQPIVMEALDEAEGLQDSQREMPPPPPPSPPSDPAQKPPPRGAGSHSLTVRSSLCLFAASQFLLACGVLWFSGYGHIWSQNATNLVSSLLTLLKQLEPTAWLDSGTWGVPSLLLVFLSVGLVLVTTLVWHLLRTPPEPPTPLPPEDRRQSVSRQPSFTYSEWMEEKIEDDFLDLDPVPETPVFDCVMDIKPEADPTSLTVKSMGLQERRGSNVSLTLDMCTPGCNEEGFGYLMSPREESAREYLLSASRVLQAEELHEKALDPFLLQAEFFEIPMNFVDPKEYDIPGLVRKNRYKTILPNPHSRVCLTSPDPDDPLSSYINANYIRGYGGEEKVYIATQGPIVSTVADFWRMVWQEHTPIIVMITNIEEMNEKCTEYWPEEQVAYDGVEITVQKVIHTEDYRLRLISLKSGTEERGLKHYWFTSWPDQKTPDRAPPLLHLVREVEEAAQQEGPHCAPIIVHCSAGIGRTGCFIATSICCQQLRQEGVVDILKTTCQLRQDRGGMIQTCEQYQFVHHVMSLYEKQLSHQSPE

[14] = molecular target: 72 kDa type IV collagenase (Homo sapiens, UniProt P08253); experiment: Dose Response validation of uHTS RPN11 inhibitor hits using a MMP-2 Fluorescence assay.; format: functional
[15] = molecular target: T3, Tyrosine-protein phosphatase non-receptor type 22 (Homo sapiens, UniProt Q9Y2R2); experiment: PTPN22 phosphatase inhibition, dose response, selectivity assay for STEP inhibitor project, biochemical (AID 624241); format: functional
T3 sequence (Q9Y2R2 whole entry): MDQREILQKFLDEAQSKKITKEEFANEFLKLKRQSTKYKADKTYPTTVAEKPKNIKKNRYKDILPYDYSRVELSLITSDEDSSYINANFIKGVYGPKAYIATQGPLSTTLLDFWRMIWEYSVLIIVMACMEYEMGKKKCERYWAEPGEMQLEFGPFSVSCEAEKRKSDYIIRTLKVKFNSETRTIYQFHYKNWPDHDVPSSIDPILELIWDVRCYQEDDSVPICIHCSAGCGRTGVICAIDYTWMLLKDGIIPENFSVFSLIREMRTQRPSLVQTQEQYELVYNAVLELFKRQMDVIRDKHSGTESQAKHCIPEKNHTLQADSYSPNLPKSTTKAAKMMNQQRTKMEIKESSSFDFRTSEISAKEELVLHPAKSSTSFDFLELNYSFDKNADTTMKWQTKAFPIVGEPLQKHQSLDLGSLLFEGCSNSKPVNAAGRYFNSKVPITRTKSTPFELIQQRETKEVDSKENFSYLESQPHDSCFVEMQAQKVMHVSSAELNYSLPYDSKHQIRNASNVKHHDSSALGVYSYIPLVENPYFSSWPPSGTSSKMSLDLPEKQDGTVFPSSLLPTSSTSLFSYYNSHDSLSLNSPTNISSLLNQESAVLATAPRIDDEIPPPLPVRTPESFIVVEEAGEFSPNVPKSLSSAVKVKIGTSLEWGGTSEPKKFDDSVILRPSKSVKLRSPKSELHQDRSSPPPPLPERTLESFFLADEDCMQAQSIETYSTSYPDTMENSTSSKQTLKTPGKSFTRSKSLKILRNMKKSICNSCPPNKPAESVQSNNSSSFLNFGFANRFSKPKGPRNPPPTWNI

[16] = molecular target: Peroxisome proliferator-activated receptor gamma/Nuclear receptor coactivator 1 (Homo sapiens, UniProt P37231); experiment: as §1, with “1 (SRC-1)” for “2 (SRC-2)”, “assays (depositor defined):AID1300, AID1808, AID504735, AID631]” for “assays: 1297, 1032 ]”; format: protein assay
Peroxisome proliferator-activated receptor gamma/Nuclear receptor coactivator 1, sequence (P37231 whole entry): as the sequence (P37231 whole entry) above
Peroxisome proliferator-activated receptor gamma/Nuclear receptor coactivator 1, sequence (Q15788 whole entry, further chain): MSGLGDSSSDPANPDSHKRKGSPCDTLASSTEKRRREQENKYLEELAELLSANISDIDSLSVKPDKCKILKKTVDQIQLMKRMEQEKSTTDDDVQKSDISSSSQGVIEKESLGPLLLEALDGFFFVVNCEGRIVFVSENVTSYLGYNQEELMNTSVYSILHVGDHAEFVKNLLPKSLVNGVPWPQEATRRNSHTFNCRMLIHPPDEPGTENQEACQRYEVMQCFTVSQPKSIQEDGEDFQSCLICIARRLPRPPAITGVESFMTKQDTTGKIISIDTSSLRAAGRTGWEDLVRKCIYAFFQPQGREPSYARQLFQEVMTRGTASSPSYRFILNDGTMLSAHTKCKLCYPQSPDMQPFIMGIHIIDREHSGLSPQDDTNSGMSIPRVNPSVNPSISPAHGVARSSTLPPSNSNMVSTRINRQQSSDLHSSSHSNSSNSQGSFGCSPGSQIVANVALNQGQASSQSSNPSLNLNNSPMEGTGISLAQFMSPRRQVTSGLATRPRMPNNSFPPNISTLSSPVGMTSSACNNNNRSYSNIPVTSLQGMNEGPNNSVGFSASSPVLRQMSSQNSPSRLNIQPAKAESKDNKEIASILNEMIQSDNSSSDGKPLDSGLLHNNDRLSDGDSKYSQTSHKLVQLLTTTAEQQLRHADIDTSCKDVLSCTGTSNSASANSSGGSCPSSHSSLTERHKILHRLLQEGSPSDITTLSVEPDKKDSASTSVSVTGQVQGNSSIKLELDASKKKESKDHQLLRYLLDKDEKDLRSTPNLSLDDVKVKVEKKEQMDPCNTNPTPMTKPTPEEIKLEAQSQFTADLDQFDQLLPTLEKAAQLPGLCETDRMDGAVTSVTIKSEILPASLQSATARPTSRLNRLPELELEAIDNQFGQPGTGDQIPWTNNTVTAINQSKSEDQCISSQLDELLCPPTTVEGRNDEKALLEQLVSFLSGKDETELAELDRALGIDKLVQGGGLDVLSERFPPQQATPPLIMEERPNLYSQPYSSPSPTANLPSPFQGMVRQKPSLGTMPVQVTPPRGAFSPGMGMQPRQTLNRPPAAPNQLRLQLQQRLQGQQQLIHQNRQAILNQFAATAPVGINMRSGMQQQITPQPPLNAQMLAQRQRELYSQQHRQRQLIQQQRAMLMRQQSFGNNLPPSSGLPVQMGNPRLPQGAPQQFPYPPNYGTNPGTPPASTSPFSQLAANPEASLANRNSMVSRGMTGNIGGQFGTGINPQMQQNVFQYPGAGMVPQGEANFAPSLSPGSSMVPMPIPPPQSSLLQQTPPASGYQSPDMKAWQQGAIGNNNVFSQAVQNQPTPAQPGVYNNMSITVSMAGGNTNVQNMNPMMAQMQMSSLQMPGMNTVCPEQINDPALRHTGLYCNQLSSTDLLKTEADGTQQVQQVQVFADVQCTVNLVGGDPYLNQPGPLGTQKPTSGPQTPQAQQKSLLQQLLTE

Cc1ccc(Cl)c(N2C(=O)C(Cl)=C(Cl)C2=O)c1Cl
IC50 [1]: > 100 µM (not active) | IC50 [2]: 20.1 µM (active) | IC50 [3]: > 100 µM (not active)

Cc1cccc(Nc2nn3c(=O)c4ccccc4nc3s2)c1
IC50 [4]: > 49.8 µM (not active) | IC50 [5]: 3.16 µM (active) | IC50 [6]: 1.71 µM (active) | IC50 [7]: > 100 µM (inactive) | IC50 [8]: > 10 µM (not active) | EC50 [9]: > 79.4 µM (not active) | EC50 [10]: 21.7 µM (not active) | IC50 [11]: 1.21 µM (active) | IC50 [12]: 17.6 µM (active) | IC50 [13]: 4.17 µM (active) | IC50 [14]: 5.79 µM (active) | IC50 [15]: 96.2 µM (inactive) | EC50 [16]: 32.2 µM (inactive)
